In patent US20210228523A1, “MODULATORS OF SESTRIN-GATOR2 INTERACTION AND USES THEREOF” (Navitor Pharmaceuticals, Inc., priority 2017, published 2021):

Assays:
[1] = tested on: Male Sprague Dawley rats; test: Female Urine Sniffing Test (FUST); assay type: in vivo, rat; details: Example A, 24 hrs post-dose; for time spent sniffing female urine (FUST): mean±SEM, n=8
Description: Behavioral Analysis Using the Female Urine Sniffing Test (FUST): The FUST was conducted according to published procedures (Malkesman, O. et al, Biol Psychiatry 67(9): 864-71 (2010)), 24 hr post-dosing. Briefly, rats were habituated for 60 min to a cotton swab dipped in tap water in their home cage. Next, rats were exposed to a 2nd cotton swab dipped in tap water and 45 min later they were exposed to a 3rd cotton swab infused with fresh rat urine from 11 to 14-week-old female rats in estrus. The total time (s) spent sniffing the cotton-tipped applicator was quantitated over 5 min for each animal.
Study Design. Thirty-two (32) male Sprague Dawley Male rats weighing between 175 and 200 g were randomized into 4 study groups (n=8/treatment group), following a 5-day acclimation period. On study day 0, rats received a single dose of either saline (Sal) or ketamine (Ket) in Groups 1 and 2, respectively, by intraperitoneal injection (i.p.). The rats in Group 3 and 4 received a single dose of the NV-5138 vehicle (Veh, 0.5% Methylcellulose/0.1% Tween-80) or NV-5138 (160 mg/kg), respectively, by oral gavage. All rats were subjected to the FUST on day 1, 24 hrs after dosing. On day 2, 48 hrs after dosing, the LMA of all rats was measured in an open field. Rats were then fasted for 20 hrs and subjected to the NSFT, 72 hrs post-dose.
Preparation of Test Articles. Ket (Sigma, cat #K1884) was dissolved in Sal at a concentration of 10 mg/mL. A volume of 1 ml/kg of Sal or Ket was injected i.p. for Groups 1 and 2, respectively. NV-5138 (Navitor, lot #06) was prepared by dissolving in Veh (0.5% methylcellulose/0.1% Tween-80) at a concentration of 50 mg/mL. The dosing volume based on the weight of the animal (3.2 mL/kg) of Veh or NV-5138 was administered by oral gavage to study animals in Groups 3 and 4, respectively. Test articles were prepared the day of dosing.

[2] = tested on: synaptic proteins (GluR1, Synapsin 1, PSD95); test: Western blot of synaptic proteins in crude synaptosomes from rat prefrontal cortex; assay type: in vivo; details: for levels of GluR1 in crude PFC synaptosomes / levels of PSD95 in crude PFC synaptosomes / levels of Synapsin 1 in crude PFC synaptosomes: Example B, 24 hr after administration
Description: Study Design. Forty-eight (48) male Sprague Dawley rats weighing between 175 and 200 g were randomized into 8 study groups (n=6/group), following a 5-day acclimation period. On study day 0, rats in Groups 3 and 7 received a single dose of Sal while Groups 4 and 8 received a single dose of Ket (10 mg/kg) each by i.p. injection. […] One hour after dosing, rats in Groups 1-4 were sacrificed by conscious decapitation and followed by collection of the PFC. Crude synaptosomes were prepared from the PFC and three mTORC1 substrates, pmTOR, pp70S6K and p4E-BP1, and corresponding total protein loading controls (mTOR, p70S6K, and GAPDH) were quantitated by WB. Twenty-four hours after dosing, rats in Groups 5-8 were sacrificed by conscious decapitation and collection of the PFC. Crude synaptosomes were prepared from the PFC and the synaptic proteins (GluR1 and PSD95), as well as the total protein loading control (GAPDH), were quantitated by WB.
Prefrontal Cortex Synaptosome Preparations. The brain was dissected from rats in all groups (n=6/group) and rinsed in PBS. The PFC was collected as shown in FIG. 6 and homogenized at 4° C. in homogenization buffer (0.32 M sucrose, 20 mM HEPES at pH 7.4, 1 mM EDTA, 5 mM NaF, 1 mM NaVO3 and protease inhibitor cocktail (Roche; Ser. No. 19/543,200)). The homogenate was centrifuged for 10 min at 2,800 rpm at 4° C. after which the supernatant was removed and re-centrifuged at 12,000 rpm for 10 min at 4° C. The resulting pellet containing crude synaptosomes was re-suspended in Lysis buffer (50 mM Tris-HCl (pH 7.5), 150 mM NaCl, 1% Triton X-100, 0.1% SDS, 2 mM, EDTA, 1 mM NaVO3, 5 mM NaF and protease inhibitor cocktail) and sonicated on ice for 20 s at 50% amplitude. The protein concentration was determined by Bradford assay and all samples were mixed with loading buffer (60 mM Tris-HCl pH 6.8, 20 mM DTT, 2% SDS, 10% glycerol, 5% β-mercaptoethanol and 0.01% Bromophenol blue) and stored at -20° C. until WB analysis.
Western Blot Analysis: Western blot analysis for GluR1, PSD95 and GAPDH was performed as previously described. Briefly, synaptosomes preparations (15 μg total protein) were loaded into 10-15% SDS PAGE gel for electrophoresis and transferred to a polyvinylidene difluoride (PVDF) membrane in transfer buffer (10× premixed electrophoresis buffer contains 25 mM Tris, 192 mM glycine, pH 8.3; Bio-Rad). The PVDF membranes were blocked for 1 hr at room temperature with blocking buffer (2% BSA in PBS-T (10 mM Phosphate, pH 7.4, 2.7 mM KCl, 137 mM NaCl and 0.1% Tween-20)) and subsequently incubated with primary antibodies: rabbit anti-pmTOR at 1:1000 (Cell Signaling; #5536), rabbit anti-mTOR at 1:1000 (Cell Signaling; #2972), rabbit anti-pp70S6K at 1:1000 (Cell Signaling; #9205), rabbit anti-p70S6K at 1:1000 (Cell Signaling; #2708), rabbit anti-p4E-BP1 at 1:1000 (Cell Signaling; #2855), rabbit anti-GluR1 at 1:1000 (Cell Signaling; #13185), rabbit anti-Synapsin 1 at 1:1000 (Cell Signaling; #5297), rabbit anti-PSD95 at 1:1000 (Cell Signaling; #9644) and rabbit anti-GAPDH at 1:1000 (Cell Signaling; #5174) in blocking buffer overnight at 4° C. The next day, membranes were washed 3 times in PBS-T buffer and incubated with horseradish peroxidase conjugated anti-mouse or anti-rabbit secondary antibody at 1:5000 to 1:10000 (Vector Laboratories Inc) for 1 hr. After final three washes with PBS-T buffer, bands were detected using enhanced chemiluminescence. The blots then were incubated in the stripping buffer (2% SDS, 100 mM β-mercaptoethanol, 50 mM Tris-HCl pH 6.8) for 30 min at 50-55° C. followed by three washes with PBS-T buffer. The stripped blots were kept in blocking solution for 1 hr and incubated with the primary antibody directed against total levels of the respective protein or GAPDH for loading control. Densitometric analysis of phospho- and total immunoreactivity for each protein was conducted using NIH Image J software. […]

Structure (SMILES) | time spent sniffing female urine (FUST) ([1]; Ket 10 mg/kg i.p. single dose) | increase in time spent sniffing female urine vs Sal ([1]; Ket 10 mg/kg i.p. single dose, p<0.05) | levels of GluR1 in crude PFC synaptosomes ([2]; Ket 10 mg/kg i.p.) | levels of PSD95 in crude PFC synaptosomes ([2]; Ket 10 mg/kg i.p.) | levels of Synapsin 1 in crude PFC synaptosomes ([2]; Ket 10 mg/kg i.p.) | time spent sniffing female urine (FUST) ([1]; NV-5138 160 mg/kg oral single dose) | increase in time spent sniffing female urine vs Veh ([1]; NV-5138 160 mg/kg oral single dose, p<0.01) | levels of GluR1 in crude PFC synaptosomes ([2]; NV-5138 160 mg/kg oral) | levels of PSD95 in crude PFC synaptosomes ([2]; NV-5138 160 mg/kg oral) | levels of Synapsin 1 in crude PFC synaptosomes ([2]; NV-5138 160 mg/kg oral) | GluR1 in crude PFC synaptosomes ([2]; Example E, CUS rats, NV-5138 160 mg/kg oral, 24 hrs after second dose (day 5), p<0.01) | PSD95 in crude PFC synaptosomes ([2]; Example E, CUS rats, NV-5138 160 mg/kg oral, 24 hrs after second dose (day 5), p<0.05)
CNC1(c2ccccc2Cl)CCCCC1=O (stereo not drawn) [Ket, ketamine, reference compound] | 36.5 ± 7.9 s | 2.1 fold | significantly increased | significantly increased | significantly increased | – | – | – | – | – | – | –
CC(C)(C[C@H](N)C(=O)O)C(F)F [NV-5138] | – | – | – | – | – | 33.8 ± 2.9 s | 2.9 fold | significantly increased | trend toward increased expression | significantly increased | normalization | normalization
